Assay results reported in patent US12521394B2, “Therapeutic compositions and methods for treating cancers” (Pattern Computer, Inc., priority 2019, dated 2026).

Tested on: Non-malignant S1 cells
Assay: 3D LrECM culture translational assay, Live/Dead viability/cytotoxicity (Calcein AM/EthD-1), non-malignant cells
Type: cell-based
Details: 3D culture, FIG. 8B
Description: Twenty-one compounds were received and reconstituted to yield 10 mM stock solution. Compounds were independently tested on a 2D culture assay to determine cell survival. Combinations of compounds were then tested on a 6×6 matrix on 2D culture to determine synergistic dosing. Then functional validation of the synergistic combinations was determined in 3D culture. (See FIG. 2).
Non-malignant S1 and Malignant T4-2 cells were evaluated for growth inhibition or cell death with the determined concentrations. The cells were plated at a density of 2×10^4 (S1) or 1×10^4 (T4-2) cells per well on top of Matrigel layer and allowed to form multicellular tumor colonies for 4-5 days. Then the cells were treated with either single-drug or drug combinations as PCI designed to evaluate synergistic interactions. Fresh media containing testing drugs were replenished every other day. At the end of the assay, we analyzed morphology and viability/cytotoxicity using phase imaging and fluorescent detection with Live/Dead using viability/cytotoxicity (Calcein AM/EthD-1) kit (FIG. 8). 3D translational assay in non-malignant S1 and malignant T4-2 cells were repeated 3 times.

COC[C@H](NC(=O)c1cnc(C)s1)C(=O)N[C@@H](COC)C(=O)N[C@@H](Cc1ccccc1)C(=O)[C@@]1(C)CO1 [Oprozomib, N-[(2S)-3-methoxy-1-[[(2S)-3-methoxy-1-[[(2S)-1-[(2R)-2-methyloxiran-2-yl]-1-oxo-3-phenylpropan-2-yl]amino]-1-oxopropan-2-yl]amino]-1-oxopropan-2-yl]-2-methyl-1,3-thiazole-5-carboxamide]
cell proliferation in non-malignant S1 cells: promoted cell proliferation
